Measured values as given in ChEMBL document CHEMBL4028802, “DILIrank: the largest reference drug list ranked by the risk for developing drug-induced liver injury in humans” (Drug Discov Today, 2016).

Experiments:
Homo sapiens [1] = species on record: Homo sapiens; test: Liver toxicity in human assessed as induction of drug-induced liver injury by measuring severity class index
Homo sapiens [2] = species on record: Homo sapiens; test: Liver toxicity in human assessed as induction of drug-induced liver injury by measuring verified drug-induced liver injury concern status
For DILI severity class in this document: key of the grades not given here.

Row | Molecule | DILI_severity_class (Homo sapiens [1]) | DILI_Concern (Homo sapiens [2])
1 | CONC(=N)c1ccc(-c2ccc(-c3ccc(C(=N)NOC)cc3)o2)cc1 [PAFURAMIDINE] | 8 | Most-Dili-Concern
2 | NCC(CC(=O)O)c1ccc(Cl)cc1 (stereo not drawn) [BACLOFEN] | 3 | Less-Dili-Concern
3 | C=C(CC)C(=O)c1ccc(OCC(=O)O)c(Cl)c1Cl [ETHACRYNIC ACID] | 5 | Ambiguous-Dili-Concern
4 | OC[C@@H](O)[C@@H](O)[C@H](O)[C@@H](O)CO [SORBITOL] | 0 | No-Dili-Concern
5 | CN(C)[C@@H]1C(O)=C(C(N)=O)C(=O)[C@@]2(O)C(O)=C3C(=O)c4c(O)cccc4[C@@](C)(O)[C@H]3C[C@@H]12 [TETRACYCLINE] | 2 | Less-Dili-Concern
6 | COc1cc(NC(C)CCCN)c2ncccc2c1 (stereo not drawn) [PRIMAQUINE] | 0 | No-Dili-Concern
7 | Nc1nc(=O)[nH]cc1F [FLUCYTOSINE] | 3 | Ambiguous-Dili-Concern
8 | CN1Cc2c(N)cccc2C(c2ccccc2)C1 (stereo not drawn) [NOMIFENSINE] | 8 | Most-Dili-Concern
9 | CN1CC(=O)N2[C@H](c3ccc4c(c3)OCO4)c3[nH]c4ccccc4c3C[C@@H]2C1=O | 3 | Ambiguous-Dili-Concern
10 | CCCSc1ccc2nc(NC(=O)OC)[nH]c2c1 [ALBENDAZOLE] | 7 | Most-Dili-Concern
11 | NC(=O)C[S+]([O-])C(c1ccccc1)c1ccccc1 (stereo not drawn) [MODAFINIL] | 3 | Less-Dili-Concern
12 | Nc1nc(O)c2ncn(COC(CO)CO)c2n1 [GANCICLOVIR] | 7 | Ambiguous-Dili-Concern
13 | CCOC(=O)c1ncn2c1CN(C)C(=O)c1cc(F)ccc1-2 [FLUMAZENIL] | 0 | No-Dili-Concern
14 | COC(=O)C1=C(C)NC(C)=C(C(=O)OC)C1c1ccccc1[N+](=O)[O-] [NIFEDIPINE] | 3 | Less-Dili-Concern
15 | Cc1cccc(Nc2ccccc2C(=O)O)c1C [MEFENAMIC ACID] | 8 | Most-Dili-Concern
16 | CCCNC(=O)NS(=O)(=O)c1ccc(Cl)cc1 [CHLORPROPAMIDE] | 2 | Less-Dili-Concern
17 | O=c1[nH]c2ccccc2n1C1CCN(CCCC(c2ccc(F)cc2)c2ccc(F)cc2)CC1 [PIMOZIDE] | 0 | No-Dili-Concern
18 | Cc1onc(-c2ccccc2Cl)c1C(=O)N[C@@H]1C(=O)N2[C@@H]1SC(C)(C)[C@@H]2C(=O)O [CLOXACILLIN] | 3 | Less-Dili-Concern
19 | CC(C)CN(C[C@@H](O)[C@H](Cc1ccccc1)NC(=O)O[C@H]1CCOC1)S(=O)(=O)c1ccc(N)cc1 | 3 | Ambiguous-Dili-Concern
20 | CCc1cc(C(N)=S)ccn1 [ETHIONAMIDE] | 3 | Less-Dili-Concern
21 | CN(C)[C@@H]1C(O)=C(C(N)=O)C(=O)[C@@]2(O)C(O)=C3C(=O)c4c(O)cccc4[C@@](C)(O)[C@H]3[C@H](O)[C@@H]12 [OXYTETRACYCLINE] | 2 | Ambiguous-Dili-Concern
22 | COc1ccc2c(C(=S)N(C)CC(=O)O)cccc2c1C(F)(F)F [TOLRESTAT] | 8 | Most-Dili-Concern

Row | Molecule | DILI_severity_class (Homo sapiens [1]) | DILI_Concern (Homo sapiens [2])
23 | O=C1CCc2ccc(OCCCCN3CCN(c4cccc(Cl)c4Cl)CC3)cc2N1 [ARIPIPRAZOLE] | 5 | Ambiguous-Dili-Concern
24 | C=C1CC[C@H](O)C/C1=C/C=C1\CCC[C@]2(C)[C@@H]([C@H](C)/C=C/[C@H](C)C(C)C)CC[C@@H]12 [ERGOCALCIFEROL] | 0 | No-Dili-Concern
25 | NC(=O)NS(=O)(=O)c1ccc(N)cc1 [SULFACARBAMIDE] | 8 | Most-Dili-Concern
26 | COc1cc2c(cc1OC)C(=O)C(CC1CCN(Cc3ccccc3)CC1)C2 (stereo not drawn) [DONEPEZIL] | 3 | Less-Dili-Concern
27 | [H]/N=C(/N)N[C@H]1[C@H](O)[C@@H](O)[C@H](O[C@@H]2O[C@@H](C)[C@](O)(C=O)[C@H]2O[C@@H]2O[C@@H](CO)[C@H](O)[C@@H](O)[C@@H]2NC)[C@@H](N/C(N)=N\[H])[C@@H]1O [STREPTOMYCIN] | 0 | No-Dili-Concern
28 | CC(=O)[C@@]1(O)CC[C@H]2[C@@H]3C=C(C)C4=CC(=O)CC[C@]4(C)[C@H]3CC[C@@]21C | 1 | Ambiguous-Dili-Concern
29 | Nc1ccn([C@@H]2O[C@H](CO)[C@@H](O)[C@@H]2O)c(=O)n1 [CYTARABINE] | 3 | Most-Dili-Concern
30 | O=C(O[C@H]1CN2CCC1CC2)N1CCc2ccccc2[C@@H]1c1ccccc1 [SOLIFENACIN] | 3 | Ambiguous-Dili-Concern
31 | C[C@]12C=CC(=O)N[C@@H]1CC[C@@H]1[C@@H]2CC[C@]2(C)[C@@H](C(=O)Nc3cc(C(F)(F)F)ccc3C(F)(F)F)CC[C@@H]12 [DUTASTERIDE] | 0 | No-Dili-Concern
32 | Cc1ccc(C(=O)c2ccc(CC(=O)O)n2C)cc1 [TOLMETIN] | 3 | Less-Dili-Concern
33 | C[C@H]1CN(C[C@H](Cc2ccccc2)C(=O)NCC(=O)O)CC[C@@]1(C)c1cccc(O)c1 [ALVIMOPAN] | 0 | No-Dili-Concern
34 | O=C(c1ccc(OCCN2CCCCC2)cc1)c1c(-c2ccc(O)cc2)sc2cc(O)ccc12 [RALOXIFENE] | 0 | No-Dili-Concern
35 | O=C1NC(=O)C(c2ccccc2)(c2ccccc2)N1 [PHENYTOIN] | 8 | Most-Dili-Concern
36 | CN1CC[C@]23CCCC[C@H]2[C@H]1Cc1ccc(O)cc13 [LEVORPHANOL] | 0 | No-Dili-Concern
37 | CCN(CC)CCN1C(=O)CN=C(c2ccccc2F)c2cc(Cl)ccc21 [FLURAZEPAM] | 4 | Less-Dili-Concern
38 | CCC[C@@H]1C[C@@H](C(=O)N[C@@H]([C@H]2O[C@H](SC)[C@H](OP(=O)(O)O)[C@@H](O)[C@H]2O)[C@H](C)Cl)N(C)C1 [CLINDAMYCIN PHOSPHATE] | 3 | Ambiguous-Dili-Concern
39 | O=C(O)COc1nn(Cc2ccccc2)c2ccccc12 [BENDAZAC] | 8 | Most-Dili-Concern
40 | VERTEPORFIN | 3 | Ambiguous-Dili-Concern
41 | CN(C)CCCC1c2ccccc2Nc2ccc(Cl)cc21 (stereo not drawn) [CLOMACRAN] | 8 | Most-Dili-Concern
42 | NCCCCCC(=O)O [AMINOCAPROIC ACID] | 0 | No-Dili-Concern
43 | CCOC(=O)C1(c2ccccc2)CCN(C)CC1 [MEPERIDINE] | 0 | No-Dili-Concern
44 | O=C(O)CCNC(=O)c1ccc(/N=N/c2ccc(O)c(C(=O)O)c2)cc1 [BALSALAZIDE] | 8 | Ambiguous-Dili-Concern
